Results taken from patent US20240358818A1, “ANTIBODY-INDUCING POLYPEPTIDE AND VACCINE” (priority 2021, published 2024).
No end group written: not given here.

Columns and labels:
[1] = tested on: IgG in serum samples of patients recovered from SARS-COV-2 infection; type: binding, human
[2] = biological target: S2 protein of SARS-COV-2 (Severe acute respiratory syndrome coronavirus 2, UniProt P0DTC2)
[3] = biological target: RBD protein of SARS-COV-2 (Severe acute respiratory syndrome coronavirus 2, UniProt P0DTC2)
[4] = biological target: binding between ACE2 and RBD (Severe acute respiratory syndrome coronavirus 2, UniProt P0DTC2); details: for inhibition of the binding between ACE2 and RBD: serum of mice sensitized with conjugate, FIG. 2, FIG. 3(A)

| Sequence | reaction with antibodies in serum samples obtained from the 5 patients [1] | S2 recognizing ability of mouse serum IgG [2] | RBD recognition ability of mouse serum IgG [3] | also measured |
| --- | --- | --- | --- | --- |
| ASVVNIQKEIDRLNEVAKNL [#114] | strongly react | high |  |  |
| DRLNEVAKNLNESLIDLQE (also: conjugate) [#115] | strongly react | high |  |  |
| ELDSFKEELDKYFKNHTS (also: conjugate) [#111] | strongly react | high |  |  |
| EVRQIAPGQTGKIADYNYKLPD [#8] |  |  | high |  |
| NATRFASVYAWNRKRISNC [#3] |  |  | high | inhibition of the binding between ACE2 and RBD [4]: inhibit the binding between ACE2 and RBD |
| SNLKPFERDISTEIYQAGSTPC [#11] |  |  | high | inhibitory ability on ACE2-RBD binding compared with positive control ([4]; mouse serum diluted to 100-fold, positive control mouse anti-RBD polyclonal antibody, FIG. 2): equivalent to that of the positive control; inhibitory effects on ACE2-RBD binding compared with serum of recovered patients ([4]; versus the 4 patients other than patient A, FIG. 3(B)): substantially equivalent |
| YGVSPTKLNDLCF (also: conjugate) [#5] |  |  | without the RBD protein recognizing ability | inhibition of the binding between ACE2 and RBD [4]: substantially no inhibitory activity was observed |
